Test results reported in patent US10081634B2, “Heterocyclic compound” (Daewoong Pharmaceutical Co., Ltd., priority 2014, dated 2018).
Where a name gives a salt, the structure may show the parent alone.

Tests used:
[1] = target: T1, PRS (prolyl-tRNA synthetase) (Homo sapiens, UniProt P07814); experiment: In vitro PRS enzyme activity inhibition experiment ([3H]proline, liquid scintillation); format: biochemical; conditions: purified PRS protein subcloned from EPRS cDNA; 37° C., 5 to 10 minutes; read-out: PRS IC50
T1 construct: the portion corresponding to PRS in cDNA of EPRS was subcloned; made in house
T1 sequence (P07814 1007-1512 limits assumed): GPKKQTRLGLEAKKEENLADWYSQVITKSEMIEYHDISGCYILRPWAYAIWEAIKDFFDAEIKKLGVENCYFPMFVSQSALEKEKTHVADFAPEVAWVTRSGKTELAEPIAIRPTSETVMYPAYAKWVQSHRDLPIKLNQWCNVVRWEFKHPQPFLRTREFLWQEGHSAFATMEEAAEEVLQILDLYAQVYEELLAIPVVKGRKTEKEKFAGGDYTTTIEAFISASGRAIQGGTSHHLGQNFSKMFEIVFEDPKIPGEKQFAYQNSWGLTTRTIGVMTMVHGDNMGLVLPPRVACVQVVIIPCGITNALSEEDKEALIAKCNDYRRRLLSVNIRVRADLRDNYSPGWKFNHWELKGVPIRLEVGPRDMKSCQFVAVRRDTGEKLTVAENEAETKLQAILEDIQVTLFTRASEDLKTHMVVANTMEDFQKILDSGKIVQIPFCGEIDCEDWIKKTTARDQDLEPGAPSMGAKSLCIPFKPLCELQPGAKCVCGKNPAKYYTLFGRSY
Procedure: In order to confirm the biological activities of the compounds prepared in Examples, % inhibition or IC50 values of PRS enzyme ([…]) activities were calculated.
Specifically, the portion corresponding to PRS in cDNA of EPRS was subcloned, and the obtained high-purity PRS protein was purified and used in the experiment. The compounds (1 μM) prepared in Examples were added into the reaction buffer (20 mM KPO4 (pH 7.4), 6 mM MgAc, 5 mM ATP, […] tRNA, 0.5 mM DTT, 20 mCi[^3H]proline (1 mCi/mL)) and allowed to react at 37° C. for 5 to 10 minutes. The reaction was terminated with 3M paper that was previously dried by addition of 5% TCA. The radioactivity was measured using a liquid scintillation counter.
IC50 values of the respective compounds were calculated and analyzed using Microsoft Excel or Sigma Plot 8.0. In Table 1, the results are divided into A, B and C according to the range of IC50. The case where the derived IC50 is 100 nM or less is represented by “A”, the case where the IC50 is 100 to 500 nM is represented by “B”, and the case where the IC50 is 500 nM or higher is represented by “C”.

NCI-H460 cells = experiment: Cancer cell growth inhibition experiment (MTT assay); format: cell-based; conditions: Homo sapiens; NCI-H460 lung cancer cell line; 48 hours treatment; MTT cell viability
Procedure: NCI-H460 cells, lung cancer cell lines, were cultured in 5% CO2, 37° C. incubator using a flask for 75 cm^2 tissue culture. 96-well plates were used for the evaluation. These were prepared by differently applying at concentrations in the range of 6,000 to 12,000 cells/well according to the growth rate of the cell lines. The medium containing 5% FBS were dispensed in 200 μL/well and used. The medium were cultured for 24 hours. After confirming the cell status and dispensing form of a 96-well plate under a microscope, they were used for subsequent experiments. The compounds were evaluated at concentrations of 100, 30, 10, 3, 1, 0.3, 0.03, 0.01 μM. After removing the existing medium, the compounds with various concentrations were treated in an amount of 200 μL/well. The compounds-treated plates were further cultured for 48 hours, and the cell viabilities were measured by MTT assay to calculate IC50 values.
% Inhibition and IC50 values of the respective compounds were calculated and analyzed using Sigma Plot 8.0. The case where the derived IC50 is 5 μM or less is represented by “A”, the case where the IC50 is 5 to 30 μM is represented by “B”, and the case where the IC50 is 30 μM or higher is represented by “C”.

Row | IC50 [1] [nM] | IC50 (NCI-H460 cells) [nM] | SMILES
1 | < 100 | 5000 to 30000 | Cc1cc(Cl)cc2c1ncn2CC(=O)C[C@H]1NCCC[C@@H]1O [Example 24, 1-(6-chloro-4-methyl-1H-benzo[d]imidazol-1-yl)-3-((2R,3S)-3-hydroxypiperidin-2-yl)propan-2-one]
2 | > 500 | ≥ 30000 | O=C(C[C@H]1NCCC[C@@H]1O)Cn1cnc2nc(C(F)(F)F)ccc21 [Example 30, 1-((2R,3S)-3-hydroxypiperidin-2-yl)-3-(5-(trifluoromethyl)-1H-imidazo[4,5-b]pyridin-1-yl)propan-2-one]
3 | 100 to 500 | 5000 to 30000 | O=C(C[C@H]1NCCC[C@@H]1O)Cn1cnc2cc(F)c(F)cc21 [Example 10, 1-(5,6-difluoro-1H-benzo[d]imidazol-1-yl)-3-((2R,3S)-3-hydroxypiperidin-2-yl)propan-2-one]
4 | 100 to 500 | ≥ 30000 | N#Cc1cnc2c(c1)ncn2CC(=O)C[C@H]1NCCC[C@@H]1O [Example 38, 3-(3-((2R,3S)-3-hydroxypiperidin-2-yl)-2-oxopropyl)-3H-imidazo[4,5-b]pyridine-6-carbonitrile]
5 | < 100 | 5000 to 30000 | O=C(C[C@H]1NCCC[C@@H]1O)Cn1cnc2cncc(Br)c21 [Example 33, 1-(7-bromo-1H-imidazo[4,5-c]pyridin-1-yl)-3-((2R,3S)-3-hydroxypiperidin-2-yl)propan-2-one]
6 | < 100 | 5000 to 30000 | Cc1ccc2c(ncn2CC(=O)C[C@H]2NCCC[C@@H]2O)c1C [Example 16, 1-(4,5-dimethyl-1H-benzo[d]imidazol-1-yl)-3-((2R,3S)-3-hydroxypiperidin-2-yl)propan-2-one]
7 | < 100 | ≤ 5000 | Cc1c(Cl)ccc2c1ncn2CC(=O)C[C@H]1NCCC[C@@H]1O [Example 14, 1-(5-chloro-4-methyl-1H-benzo[d]imidazol-1-yl)-3-((2R,3S)-3-hydroxypiperidin-2-yl)propan-2-one]
8 | > 500 | – | O=C(C[C@H]1NCCC[C@@H]1O)Cn1cnc2c(Cl)ncnc21 [Example 44, 1-(6-chloro-9H-purin-9-yl)-3-((2R,3S)-3-hydroxypiperidin-2-yl)propan-2-one hydrochloride salt]
9 | > 500 | – | Cc1nc2ncccc2n1CC(=O)C[C@H]1NCCC[C@@H]1O [Example 49, 1-((2R,3S)-3-hydroxypiperidin-2-yl)-3-(2-methyl-1H-imidazo[4,5-b]pyridin-1-yl)propan-2-one]
10 | > 500 | – | O=C(C[C@H]1NCCC[C@@H]1O)Cn1ncc2cc(Cl)cnc21 [Example 98, 1-(5-chloro-1H-pyrazolo[3,4-b]pyridin-1-yl)-3-((2R,3S)-3-hydroxypiperidin-2-yl)propan-2-one]
11 | > 500 | – | O=C(C[C@H]1NCCC[C@@H]1O)Cn1cnc2cc(C(=O)O)ncc21 [Example 43, 3-(3-((2R,3S)-3-hydroxypiperidin-2-yl)-2-oxopropyl)-3H-imidazo[4,5-c]pyridine-6-carboxylic acid hydrochloride salt]
12 | > 500 | – | O=C(C[C@H]1NCCC[C@@H]1O)Cn1cnc2nc(Br)ccc21 [Example 29, 1-(5-bromo-1H-imidazo[4,5-b]pyridin-1-yl)-3-((2R,3S)-3-hydroxypiperidin-2-yl)propan-2-one]

More lines, now with the values behind:

Row | SMILES | IC50 [1] [nM] | IC50 (NCI-H460 cells) [nM]
13 | O=C(C[C@H]1NCCC[C@@H]1O)Cn1c(CO)nc2cc(OC(F)(F)F)ccc21 [Example 60, 1-(2-(hydroxymethyl)-5-(trifluoromethoxy)-1H-benzo[d]imidazol-1-yl)-3-((2R,3S)-3-hydroxypiperidin-2-yl)propan-2-one] | > 500 | ≥ 30000
14 | OCc1nc2cc(Cl)c(Cl)cc2n1CC(O)C[C@H]1NCCC[C@@H]1O (stereo partly drawn) [Example 88, (2R,3S)-2-(3-(5,6-dichloro-2-(hydroxymethyl)-1H-benzo[d]imidazol-1-yl)-2-hydroxypropyl)piperidin-3-ol] | 100 to 500 | ≥ 30000
15 | OC(C[C@H]1NCCC[C@@H]1O)Cn1cnc2ccccc21 (stereo partly drawn) [Example 69, (2R,3S)-2-(3-(1H-benzo[d]imidazol-1-yl)-2-hydroxypropyl)piperidin-3-ol] | > 500 | ≥ 30000
16 | CC(O)(C[C@H]1NCCC[C@@H]1O)Cn1cnc2cc(Cl)c(Cl)cc21 (stereo partly drawn) [Example 84, (2R,3S)-2-(3-(5,6-dichloro-1H-benzo[d]imidazol-1-yl)-2-hydroxy-2-methylpropyl)piperidin-3-ol] | > 500 | ≥ 30000
17 | O=C(C[C@H]1NCCC[C@@H]1O)Cn1c(CO)nc2ccccc21 [Example 56, 1-(2-(hydroxymethyl)-1H-benzo[d]imidazol-1-yl)-3-((2R,3S)-3-hydroxypiperidin-2-yl)propan-2-one] | < 100 | ≥ 30000
18 | OC(C[C@H]1NCCC[C@@H]1O)Cn1cnc2c(F)c(Br)ccc21 (stereo partly drawn) [Example 74, (2R,3S)-2-(3-(5-bromo-4-fluoro-1H-benzo[d]imidazol-1-yl)-2-hydroxypropyl)piperidin-3-ol] | > 500 | –
19 | Cc1ccc2c(ncn2CC(O)C[C@H]2NCCC[C@@H]2O)c1Br (stereo partly drawn) [Example 73, (2R,3S)-2-(3-(4-bromo-5-methyl-1H-benzo[d]imidazol-1-yl)-2-hydroxypropyl)piperidin-3-ol] | > 500 | –
20 | C[C@@H](O)c1nc2ccccc2n1CC(=O)C[C@H]1NCCC[C@@H]1O [Example 54, 1-(2-((R)-1-hydroxyethyl)-1H-benzo[d]imidazol-1-yl)-3-((2R,3S)-3-hydroxypiperidin-2-yl)propan-2-one] | > 500 | –
21 | Cc1c(Br)ccc2c1ncn2CC(O)(C[C@H]1NCCC[C@@H]1O)C(F)(F)F (stereo partly drawn) [Example 85, (2R,3S)-2-(2-((5-bromo-4-methyl-1H-benzo[d]imidazol-1-yl)methyl)-3,3,3-trifluoro-2-hydroxypropyl)piperidin-3-ol] | > 500 | –
22 | OCc1nc2cc(Cl)c(Cl)cc2n1C/C(C[C@H]1NCCC[C@@H]1O)=N/O [Example 65, 1-(5,6-dichloro-2-(hydroxymethyl)-1H-benzo[d]imidazol-1-yl)-3-((2R,3S)-3-hydroxypiperidin-2-yl)propan-2-one oxime] | > 500 | –
23 | O=C(C[C@H]1NCCC[C@@H]1O)Cn1c(CCO)nc2ccc(F)cc21 [Example 53, 1-(6-fluoro-2-(2-hydroxyethyl)-1H-benzo[d]imidazol-1-yl)-3-((2R,3S)-3-hydroxypiperidin-2-yl)propan-2-one] | > 500 | –
24 | O=C(C[C@H]1NCCC[C@@H]1O)Cn1cnc2c1CCCC2 [Example 45, 1-((2R,3S)-3-hydroxypiperidin-2-yl)-3-(4,5,6,7-tetrahydro-1H-benzo[d]imidazol-1-yl)propan-2-one] | 100 to 500 | –
25 | COCc1nc2cc(Cl)c(Cl)cc2n1CC(=O)C[C@H]1NCCC[C@@H]1O [Example 63, 1-(5,6-dichloro-2-(methoxymethyl)-1H-benzo[d]imidazol-1-yl)-3-((2R,3S)-3-hydroxypiperidin-2-yl)propan-2-one] | > 500 | –
26 | CO/N=C(/C[C@H]1NCCC[C@@H]1O)Cn1cnc2cc(Cl)c(Cl)cc21 [Example 67, 1-(5,6-dichloro-1H-benzo[d]imidazol-1-yl)-3-((2R,3S)-3-hydroxypiperidin-2-yl)propan-2-one O-methyl oxime] | > 500 | –
27 | Cc1nc2c(F)c(F)ccc2n1CC(=O)C[C@H]1NCCC[C@@H]1O [Example 47, 1-(4,5-difluoro-2-methyl-1H-benzo[d]imidazol-1-yl)-3-((2R,3S)-3-hydroxypiperidin-2-yl)propan-2-one] | > 500 | –
